Results as given in patent US12180187B2, “1-phenyl-5-azinylpyrazolyl-3-oxyalkyl acids and their use for controlling unwanted plant growth” (BAYER AKTIENGESELLSCHAFT, priority 2019, dated 2024).

Tests used:
[1] = system: ECHGC; experiment: Pre-emergence action at 320 g/ha against ECHGC; type: in vivo, Echinochloa crus-galli; details: visual scoring after about 3 weeks vs untreated controls
Description: (§1) b) Seeds of monocotyledonous and dicotyledonous weed plants and crop plants are placed in plastic or organic planting pots and covered with soil. The compounds of the invention, formulated in the form of wettable powders (WP) or as emulsion concentrates (EC), are then applied onto the surface of the covering soil as aqueous suspension or emulsion with addition of 0.5% additive at a water application rate of 600 l/ha (converted). After the treatment, the pots are placed in a greenhouse and kept under good growth conditions for the trial plants. After about 3 weeks, the effect of the preparations is scored visually in comparison with untreated controls as percentages. For example, 100% activity=the plants have died, 0% activity=like control plants. Tables 13 to 26 below show the effects of selected compounds of the general formula (I) on various harmful plants and at an application rate corresponding to 320 g/ha, which were obtained by the experimental procedure mentioned above.

[2] = system: POLCO; experiment: Pre-emergence action at 320 g/ha against POLCO; type: in vivo, Fallopia convolvulus (Polygonum convolvulus); details: visual scoring after about 3 weeks vs untreated controls
Method in brief: (§2)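 Compounds were sprayed onto soil over sown seeds as emulsions or suspensions with 0.5% additive at a water rate of 600 l/ha. After about 3 weeks in the greenhouse, effect was rated visually as percent (100% = died).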

[3] = system: LOLRI; experiment: Pre-emergence action at 320 g/ha against LOLRI; type: in vivo, Lolium rigidum; details: visual scoring after about 3 weeks vs untreated controls
Description: as §1

[4] = system: ALOMY; experiment: Pre-emergence action at 320 g/ha against ALOMY; type: in vivo, Alopecurus myosuroides; details: scored visually after about 3 weeks vs untreated controls (100% = plants have died)
Method in brief: as §2

[5] = system: AMARE; experiment: Pre-emergence action at 320 g/ha against AMARE; type: in vivo, Amaranthus retroflexus; details: visual scoring after about 3 weeks vs untreated controls
Method in brief: as §2

[6] = system: SETVI; experiment: Pre-emergence action at 320 g/ha against SETVI; type: in vivo, Setaria viridis; details: visual scoring after about 3 weeks vs untreated controls
Description: as §1

[7] = system: MATIN; experiment: Pre-emergence action at 320 g/ha against MATIN; type: in vivo, Tripleurospermum inodorum (Matricaria inodora); details: visual scoring after about 3 weeks vs untreated controls
Description: as §1

[8] = system: VERPE; experiment: Pre-emergence action at 320 g/ha against VERPE; type: in vivo, Veronica persica; details: visual scoring after about 3 weeks vs untreated controls
Description: as §1

[9] = system: AVEFA; experiment: Pre-emergence action at 320 g/ha against AVEFA; type: in vivo; details: visual scoring after about 3 weeks vs untreated controls
Description: as §1

[10] = system: VIOTR; experiment: Pre-emergence action at 320 g/ha against VIOTR; type: in vivo, Viola tricolor; details: dosage 320 g/ha
Method in brief: as §2

[11] = system: ECHCG; experiment: Post-emergence action against ECHCG, 1.28 kg/ha; type: in vivo, Echinochloa crus-galli; details: dosage 1280 g/ha, visual rating about 3 weeks after treatment vs untreated controls
Method in brief: (§3)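 Visual rating against untreated plants about 3 weeks after spraying gives % activity, where 0% means like controls and 100% means plants died. Plants were treated post-emergence at the one-leaf stage with compound formulated as wettable powder or emulsion concentrate, applied at 600 L water/ha plus 0.5% additive.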

[12] = system: MATIN; experiment: Pre-emergence action against MATIN, 1280 g/ha; type: in vivo, Tripleurospermum inodorum (Matricaria inodora); details: scored visually after about 3 weeks vs untreated controls (100% = plants have died)
Method in brief: (§4)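 Compound applied as WP or EC in aqueous spray (0.5% additive, 600 L/ha) to the surface of sandy loam covering freshly sown seeds. After about 3 weeks under good greenhouse conditions, damage is given as visual percentage, 100% meaning plant death.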

[13] = system: ALOMY; experiment: Pre-emergence action against ALOMY, 1280 g/ha; type: in vivo, Alopecurus myosuroides; details: visual scoring after about 3 weeks vs untreated controls, 100% = plants have died, 0% = like control plants
Method in brief: as §4

[14] = system: VERPE; experiment: Pre-emergence action against VERPE, 1280 g/ha; type: in vivo, Veronica persica; details: scored visually after about 3 weeks vs untreated controls (100% = plants have died)
Method in brief: as §4

[15] = system: SETVI; experiment: Post-emergence action against SETVI, 1.28 kg/ha; type: in vivo, Setaria viridis; details: dosage 1280 g/ha, visual rating about 3 weeks after treatment vs untreated controls
Procedure: (§5) • a) Seeds of mono- and dicotyledonous weed plants are placed in plastic pots in sandy loam soil (twin sowing with one species each of mono- or dicotyledonous weed plants per pot), covered with soil and cultivated in a greenhouse under controlled growth conditions. 2 to 3 weeks after sowing, the test plants are treated at the one-leaf stage. The compounds of the invention, formulated in the form of wettable powders (WP) or as emulsion concentrates (EC), are applied to the green parts of the plants as aqueous suspension or emulsion with addition of 0.5% additive at a water application rate equivalent to 600 litres per hectare. After the test plants have been kept in the greenhouse under optimum growth conditions for about 3 weeks, the activity of the preparations is rated visually in comparison to untreated controls. For example, 100% activity=the plants have died, 0% activity=like control plants. As shown by the results, compounds of the general formula (I) of the invention, in post-emergence treatment, have very good herbicidal efficacy (90% to 100% herbicidal action) against harmful plants such as Abutilon theophrasti, Digitaria sanguinalis, Echinochloa crus-galli, Matricaria inodora, Poa annua, at an application rate of 1.28 kg of active substance per hectare.

[16] = system: DIGSA; experiment: Post-emergence action against DIGSA, 1.28 kg/ha; type: in vivo, Digitaria sanguinalis; details: dosage 1280 g/ha, visual rating about 3 weeks after treatment vs untreated controls
Method in brief: as §3

[17] = system: LOLRI; experiment: Pre-emergence action against LOLRI, 1280 g/ha; type: in vivo, Lolium rigidum; details: visual scoring after about 3 weeks vs untreated controls, 100% = plants have died, 0% = like control plants
Method in brief: as §4

[18] = system: STEME; experiment: Post-emergence action against STEME, 1.28 kg/ha; type: in vivo, Stellaria media; details: dosage 1280 g/ha, visual rating about 3 weeks after treatment vs untreated controls (100% = plants died)
Method in brief: as §3

[19] = system: STEME; experiment: Pre-emergence action against STEME, 1280 g/ha; type: in vivo, Stellaria media; details: scored visually after about 3 weeks vs untreated controls (100% = plants have died)
Method in brief: as §4

[20] = system: POAAN; experiment: Post-emergence action against POAAN, 1.28 kg/ha; type: in vivo, Poa annua; details: dosage 1280 g/ha, visual rating about 3 weeks after treatment vs untreated controls
Method in brief: as §3

[21] = system: DIGSA; experiment: Pre-emergence action against DIGSA, 1280 g/ha; type: in vivo, Digitaria sanguinalis; details: visual scoring after about 3 weeks vs untreated controls, 100% = plants have died, 0% = like control plants
Method in brief: as §4

[22] = system: VERPE; experiment: Post-emergence action against VERPE, 1.28 kg/ha; type: in vivo, Veronica persica; details: dosage 1280 g/ha, visual rating about 3 weeks after treatment vs untreated controls (100% = plants died)
Method in brief: as §3

[23] = system: POAAN; experiment: Pre-emergence action against POAAN, 1280 g/ha; type: in vivo, Poa annua; details: visual scoring after about 3 weeks vs untreated controls, 100% = plants have died, 0% = like control plants
Method in brief: as §4

[24] = system: ABUTH; experiment: Post-emergence action against ABUTH, 1.28 kg/ha; type: in vivo, Abutilon theophrasti; details: dosage 1280 g/ha, visual rating about 3 weeks after treatment vs untreated controls (100% = plants died)
Method in brief: as §3

[25] = system: LOLRI; experiment: Post-emergence action against LOLRI, 1.28 kg/ha; type: in vivo, Lolium rigidum; details: dosage 1280 g/ha, visual rating about 3 weeks after treatment vs untreated controls
Procedure: as §5

[26] = system: AMARE; experiment: Post-emergence action against AMARE, 1.28 kg/ha; type: in vivo, Amaranthus retroflexus; details: dosage 1280 g/ha, visual rating about 3 weeks after treatment vs untreated controls (100% = plants died)
Method in brief: as §3

[27] = system: AMARE; experiment: Pre-emergence action against AMARE, 1280 g/ha; type: in vivo, Amaranthus retroflexus; details: scored visually after about 3 weeks vs untreated controls (100% = plants have died)
Method in brief: as §4

[28] = system: MATIN; experiment: Post-emergence action against MATIN, 1.28 kg/ha; type: in vivo, Tripleurospermum inodorum (Matricaria inodora); details: dosage 1280 g/ha, visual rating about 3 weeks after treatment vs untreated controls (100% = plants died)
Method in brief: as §3

[29] = system: ECHCG; experiment: Pre-emergence action against ECHCG, 1280 g/ha; type: in vivo, Echinochloa crus-galli; details: visual scoring after about 3 weeks vs untreated controls, 100% = plants have died, 0% = like control plants
Method in brief: as §4

[30] = system: ALOMY; experiment: Post-emergence action against ALOMY, 1.28 kg/ha; type: in vivo, Alopecurus myosuroides; details: dosage 1280 g/ha, visual rating about 3 weeks after treatment vs untreated controls
Method in brief: as §3

[31] = system: SETVI; experiment: Pre-emergence action against SETVI, 1280 g/ha; type: in vivo, Setaria viridis; details: visual scoring after about 3 weeks vs untreated controls, 100% = plants have died, 0% = like control plants
Method in brief: as §4

[32] = system: DIGSA; experiment: Pre-emergence action at 320 g/ha against DIGSA; type: in vivo, Digitaria sanguinalis; details: visual scoring after about 3 weeks vs untreated controls
Description: as §1

## COC(=O)C1CCCN1C(=O)COc1nn(-c2ccccc2F)c(-c2ccc(F)nc2)c1Br (stereo not drawn) [Example X-016]
[1]
  Pre-emergence action against ECHGC in %: 90%
[2]
  Pre-emergence action against POLCO in %: 80%
[3]
  Pre-emergence action against LOLRI in %: 90%
[4]
  Pre-emergence action at 320 g/ha against ALOMY in %: 100%
[5]
  Pre-emergence action against AMARE in %: 100%
[6]
  Pre-emergence action against SETVI in %: 100%
[7]
  Pre-emergence action against MATIN in %: 90%
[8]
  Pre-emergence action against VERPE in %: 100%
[9]
  Pre-emergence action against AVEFA in %: 90%
[10]
  Pre-emergence action against VIOTR in %: 100%

## O=C(COc1nn(-c2ccccc2F)c(-c2ccc(F)nc2)c1Br)NO [Example X-023]
[11]
  Post-emergence action against ECHCG: 100%
[12]
  Pre-emergence action against MATIN: 100%
[13]
  Pre-emergence action against ALOMY: 90%
[14]
  Pre-emergence action against VERPE: 100%
[15]
  Post-emergence action against SETVI: 90%
[16]
  Post-emergence action against DIGSA: 100%
[17]
  Pre-emergence action against LOLRI: 100%
[18]
  Post-emergence action against STEME: 100%
[19]
  Pre-emergence action against STEME: 100%
[20]
  Post-emergence action against POAAN: 100%
[21]
  Pre-emergence action against DIGSA: 100%
[22]
  Post-emergence action against VERPE: 100%
[23]
  Pre-emergence action against POAAN: 100%
[24]
  Post-emergence action against ABUTH: 90%
[25]
  Post-emergence action against LOLRI: 100%
[26]
  Post-emergence action against AMARE: 100%
[27]
  Pre-emergence action against AMARE: 100%
[28]
  Post-emergence action against MATIN: 100%
[29]
  Pre-emergence action against ECHCG: 100%
[30]
  Post-emergence action against ALOMY: 100%
[31]
  Pre-emergence action against SETVI: 100%

## COC(=O)[C@@H](C)Oc1nn(-c2ccccc2)c(-c2cccnc2)c1Cl [VII-041]
[1]
  Pre-emergence action against ECHGC in %: 80%
[3]
  Pre-emergence action against LOLRI in %: 90%
[4]
  Pre-emergence action at 320 g/ha against ALOMY in %: 90%
[5]
  Pre-emergence action against AMARE in %: 100%
[7]
  Pre-emergence action against MATIN in %: 100%
[8]
  Pre-emergence action against VERPE in %: 100%
[9]
  Pre-emergence action against AVEFA in %: 80%
[10]
  Pre-emergence action against VIOTR in %: 80%

## O=C(O)C(F)Oc1nn(-c2ccccc2F)c(-c2ccc(F)nc2)c1Br (stereo not drawn) [VII-057-a]
[1]
  Pre-emergence action against ECHGC in %: 80%
[2]
  Pre-emergence action against POLCO in %: 80%
[3]
  Pre-emergence action against LOLRI in %: 90%
[5]
  Pre-emergence action against AMARE in %: 100%
[6]
  Pre-emergence action against SETVI in %: 100%
[7]
  Pre-emergence action against MATIN in %: 90%
[9]
  Pre-emergence action against AVEFA in %: 80%
[10]
  Pre-emergence action against VIOTR in %: 100%
[32]
  Pre-emergence action against DIGSA in %: 100%
